pEC50: −log10 of the molar value. *1 amine or outer side, *2 acyl side, *3 side chain or, on linkers, in order; H or OH if unused. Where a SMILES comes first, the peptide text is derived from it. Side-chain parts run from the residue outwards. [ ]: non-standard residue; d: D form. The star is where a group is joined. C20 diacid = O=C(O)CCCCCCCCCCCCCCCCCCC(=O)*; αMePhe(2-F) = C[C@](N)(Cc1ccccc1F)C(=O)O; γGlu = O=C(O)[C@H](CCC(=O)[*:2])N[*:1]; X27 = O=C1CC(C(=O)*)(c2ccccc2)CN1; X38 = CC(C)(C(=O)*)c1cc(O)cc(F)c1; X79 = O=C1CC(C(=O)*)(c2ccccn2)CN1; X14 = CC(C)(C(=O)*)n1cc(Br)cn1; X46 = O=C(C1(c2ccccc2)CCOCC1)*; AEEA = NCCOCCOCC(=O)O; Aib = CC(C)(N)C(=O)O; βAla = NCCC(=O)O

A word on the pEC50: it is the EC50 on a negative log10 scale, so that one unit is a factor of ten. The Emax is the greatest response seen or fitted, relative to the assay's reference.

What all share (format): cell-based
In test [1] the target is T1, GLP-1 receptor (Homo sapiens, UniProt P43220). Put plainly: HitHunter cAMP assay, GLP-1 receptor. As to conditions: for pEC50: CHO cells stably expressing human GLP-1 receptor, cAMP accumulation, 30 min, read-out: EC50 GLP-1R; for Emax: CHO cells, cAMP, normalized to maximum signal from GLP-1 (high) and DMSO (low), read-out: Emax GLP-1R. A general note: Cyclic AMP is a second messenger, typically raised through Gs and lowered through Gi signalling.
T1 sequence (P43220 24-463): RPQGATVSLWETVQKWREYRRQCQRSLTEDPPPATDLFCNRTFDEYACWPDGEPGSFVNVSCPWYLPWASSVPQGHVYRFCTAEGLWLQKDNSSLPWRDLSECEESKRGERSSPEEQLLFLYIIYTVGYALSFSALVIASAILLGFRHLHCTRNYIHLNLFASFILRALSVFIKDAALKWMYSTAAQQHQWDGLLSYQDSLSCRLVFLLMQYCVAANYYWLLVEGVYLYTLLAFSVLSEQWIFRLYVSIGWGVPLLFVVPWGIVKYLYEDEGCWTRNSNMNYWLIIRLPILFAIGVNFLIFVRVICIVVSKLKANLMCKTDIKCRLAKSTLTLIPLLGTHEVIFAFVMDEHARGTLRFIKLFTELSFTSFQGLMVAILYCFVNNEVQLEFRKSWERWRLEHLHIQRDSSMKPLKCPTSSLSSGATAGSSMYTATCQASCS

Test [2] addresses T2, GIP receptor (Homo sapiens, UniProt P48546).
T2 sequence (P48546 22-466): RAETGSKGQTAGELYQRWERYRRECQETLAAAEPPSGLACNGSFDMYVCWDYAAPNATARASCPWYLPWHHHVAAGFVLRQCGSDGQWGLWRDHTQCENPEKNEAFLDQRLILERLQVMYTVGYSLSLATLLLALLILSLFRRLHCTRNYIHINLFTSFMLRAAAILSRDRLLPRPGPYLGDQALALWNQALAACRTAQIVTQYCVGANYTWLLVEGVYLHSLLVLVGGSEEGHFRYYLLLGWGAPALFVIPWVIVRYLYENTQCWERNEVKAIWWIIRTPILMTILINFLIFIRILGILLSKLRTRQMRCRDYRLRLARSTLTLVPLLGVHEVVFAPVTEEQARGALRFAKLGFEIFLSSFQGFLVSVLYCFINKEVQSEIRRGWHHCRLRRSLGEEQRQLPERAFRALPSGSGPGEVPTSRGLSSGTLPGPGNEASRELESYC
Put plainly: HitHunter cAMP assay, GIP receptor. The settings on record: for pEC50: CHO cells stably expressing GIP receptor, cAMP accumulation, 30 min, read-out: EC50 GIP-1R; for Emax: CHO cells, cAMP, normalized to maximum signal from GIP (high) and DMSO (low), read-out: Emax GIP-1R.

The target in test [3] is T2, GIP receptor. As to the kind of experiment: PathHunter β-arrestin assay, GIP receptor. More on the design: host or cells: PathHunter CHO-K1 GIPR β-Arrestin Cell Line. As to conditions: β-arrestin-2 recruitment, PathHunter CHO-K1 GIPR β-Arrestin Cell Line, 90 min at 37° C.; normalized to GIP; read-out: GIPR β Arrestin EC50. For orientation: Recruitment of arrestin is a read-out of receptor activation apart from second messengers.

Test [4] addresses T1, GLP-1 receptor. Put plainly: PathHunter β-arrestin assay, GLP-1 receptor. Details: host or cells: PathHunter CHO-K1 GLP1R β-Arrestin Cell Line. As to conditions: β-arrestin-2 recruitment, PathHunter CHO-K1 GLP1R β-Arrestin Cell Line, 90 min at 37° C.; normalized to GLP-1; read-out: GLP-1R β Arrestin EC50.

Turning to `CC[C@H](C)[C@H](NC(=O)[C@H](CC(C)C)NC(=O)[C@H](Cc1c[nH]c2ccccc12)NC(=O)[C@H](CCC(N)=O)NC(=O)[C@@H](NC(=O)[C@H](Cc1ccccc1)NC(=O)[C@H](C)NC(=O)[C@H](CCCCNC(=O)COCCOCCNC(=O)COCCOCCNC(=O)CC[C@H](NC(=O)CCCCCCCCCCCCCCCCCCC(=O)O)C(=O)O)NC(=O)[C@H](CCC(N)=O)NC(=O)[C@H](C)NC(=O)[C@@H](NC(=O)[C@H](CCCCN)NC(=O)[C@H](CC(=O)O)NC(=O)[C@H](CC(C)C)NC(=O)C(C)(C)NC(=O)[C@@H](NC(=O)[C@H](CO)NC(=O)[C@H](Cc1ccc(O)cc1)NC(=O)[C@H](CC(=O)O)NC(=O)[C@H](CO)NC(=O)[C@@H](NC(=O)[C@H](Cc1ccccc1)NC(=O)[C@@H](NC(=O)CNC(=O)[C@H](CCC(=O)O)NC(=O)CCNC(=O)C(C)(C)c1cc(O)cc(F)c1)[C@@H](C)O)[C@@H](C)O)[C@@H](C)CC)[C@@H](C)CC)C(C)C)C(=O)N[C@@H](C)C(=O)NCC(=O)NCC(=O)N1CCC[C@H]1C(=O)N[C@@H](CO)C(=O)N[C@@H](CO)C(=O)NCC(=O)N[C@@H](C)C(=O)N1CCC[C@H]1C(=O)N1CCC[C@H]1C(=O)N1CCC[C@H]1C(=O)N[C@@H](CO)C(N)=O` [Compound 117] ({X38-βAla}-EGTFTSDYSI[Aib]LDKIAQK([AEEA-AEEA-γGlu-C20 diacid])AFVQWLIAGGPSSGAPPPS-NH2), the pEC50 in test [1] is 9.00 to 10.00; in test [2], 8.00 to 9.00; in test [3], less than 6.00; in test [4], less than 6.00. Also, the Emax is 96% in test [1] and 100% in test [2].

With `CC[C@H](C)[C@H](NC(=O)[C@H](CC(C)C)NC(=O)[C@H](Cc1c[nH]c2ccccc12)NC(=O)[C@H](CCC(N)=O)NC(=O)[C@@H](NC(=O)[C@H](Cc1ccccc1)NC(=O)[C@H](C)NC(=O)[C@H](CCCCNC(=O)COCCOCCNC(=O)COCCOCCNC(=O)CC[C@H](NC(=O)CCCCCCCCCCCCCCCCCCC(=O)O)C(=O)O)NC(=O)[C@H](CCC(N)=O)NC(=O)[C@H](C)NC(=O)[C@@H](NC(=O)[C@H](CCCCN)NC(=O)[C@H](CC(=O)O)NC(=O)[C@H](CC(C)C)NC(=O)C(C)(C)NC(=O)[C@@H](NC(=O)[C@H](CO)NC(=O)[C@H](Cc1ccc(O)cc1)NC(=O)[C@H](CC(=O)O)NC(=O)[C@H](CO)NC(=O)[C@@H](NC(=O)[C@H](Cc1ccccc1)NC(=O)[C@@H](NC(=O)CNC(=O)[C@H](CCC(=O)O)NC(=O)CCNC(=O)C(C)(C)n1cc(Br)cn1)[C@@H](C)O)[C@@H](C)O)[C@@H](C)CC)[C@@H](C)CC)C(C)C)C(=O)N[C@@H](C)C(=O)NCC(=O)NCC(=O)N1CCC[C@H]1C(=O)N[C@@H](CO)C(=O)N[C@@H](CO)C(=O)NCC(=O)N[C@@H](C)C(=O)N1CCC[C@H]1C(=O)N1CCC[C@H]1C(=O)N1CCC[C@H]1C(=O)N[C@@H](CO)C(N)=O` [Compound 131] ({X14-βAla}-EGTFTSDYSI[Aib]LDKIAQK([AEEA-AEEA-γGlu-C20 diacid])AFVQWLIAGGPSSGAPPPS-NH2), the pEC50 is 9.00 to 10.00 in test [1], 7.00 to 8.00 in test [2], less than 6.00 in test [3] and less than 6.00 in test [4]. Besides, the Emax in test [1] was 102%; in test [2], 96%.

With `CC[C@H](C)[C@H](NC(=O)[C@H](CC(C)C)NC(=O)[C@H](Cc1c[nH]c2ccccc12)NC(=O)[C@H](CCC(N)=O)NC(=O)[C@@H](NC(=O)[C@H](Cc1ccccc1)NC(=O)[C@H](C)NC(=O)[C@H](CCCCNC(=O)COCCOCCNC(=O)COCCOCCNC(=O)CC[C@H](NC(=O)CCCCCCCCCCCCCCCCCCC(=O)O)C(=O)O)NC(=O)[C@H](CCC(N)=O)NC(=O)[C@H](C)NC(=O)[C@@H](NC(=O)[C@H](CCCCN)NC(=O)[C@H](CC(=O)O)NC(=O)[C@H](CC(C)C)NC(=O)C(C)(C)NC(=O)[C@@H](NC(=O)[C@H](CO)NC(=O)[C@H](Cc1ccc(O)cc1)NC(=O)[C@H](CC(=O)O)NC(=O)[C@H](CO)NC(=O)[C@@H](NC(=O)[C@H](Cc1ccccc1)NC(=O)[C@@H](NC(=O)CNC(=O)[C@@H](CC(=O)O)NC(=O)CCNC(=O)C1(c2ccccc2)CNC(=O)C1)[C@@H](C)O)[C@@H](C)O)[C@@H](C)CC)[C@@H](C)CC)C(C)C)C(=O)N[C@@H](C)C(=O)NCC(=O)NCC(=O)N1CCC[C@H]1C(=O)N[C@@H](CO)C(=O)N[C@@H](CO)C(=O)NCC(=O)N[C@@H](C)C(=O)N1CCC[C@H]1C(=O)N1CCC[C@H]1C(=O)N1CCC[C@H]1C(=O)N[C@@H](CO)C(N)=O` (stereo partly drawn) [Compound 122] ({X27-βAla}-[dD]GTFTSDYSI[Aib]LDKIAQK([AEEA-AEEA-γGlu-C20 diacid])AFVQWLIAGGPSSGAPPPS-NH2), the pEC50 was 8.00 to 9.00 in test [1], 7.00 to 8.00 in test [2], more than 6.00 in test [3] and less than 6.00 in test [4]. Also, the values for the Emax in test [1] and in test [2] were 100% and 92%, respectively.

`CC[C@H](C)[C@H](NC(=O)[C@H](CC(C)C)NC(=O)[C@H](Cc1c[nH]c2ccccc12)NC(=O)[C@H](CCC(N)=O)NC(=O)[C@@H](NC(=O)[C@H](Cc1ccccc1)NC(=O)[C@H](C)NC(=O)[C@H](CCCCNC(=O)COCCOCCNC(=O)COCCOCCNC(=O)CC[C@H](NC(=O)CCCCCCCCCCCCCCCCCCC(=O)O)C(=O)O)NC(=O)[C@H](CCC(N)=O)NC(=O)[C@H](C)NC(=O)[C@@H](NC(=O)[C@H](CCCCN)NC(=O)[C@H](CC(=O)O)NC(=O)[C@H](CC(C)C)NC(=O)C(C)(C)NC(=O)[C@@H](NC(=O)[C@H](CO)NC(=O)[C@H](Cc1ccc(O)cc1)NC(=O)[C@H](CC(=O)O)NC(=O)[C@H](CO)NC(=O)[C@@H](NC(=O)[C@](C)(Cc1ccccc1F)NC(=O)[C@@H](NC(=O)CNC(=O)[C@H](CCC(=O)O)NC(=O)CCNC(=O)C1(c2ccccc2)CCOCC1)[C@@H](C)O)[C@@H](C)O)[C@@H](C)CC)[C@@H](C)CC)C(C)C)C(=O)N[C@@H](C)C(=O)NCC(=O)NCC(=O)N1CCC[C@H]1C(=O)N[C@@H](CO)C(=O)N[C@@H](CO)C(=O)NCC(=O)N[C@@H](C)C(=O)N1CCC[C@H]1C(=O)N1CCC[C@H]1C(=O)N1CCC[C@H]1C(=O)N[C@@H](CO)C(N)=O` [Compound 178] ({X46-βAla}-EGT[αMePhe(2-F)]TSDYSI[Aib]LDKIAQK([AEEA-AEEA-γGlu-C20 diacid])AFVQWLIAGGPSSGAPPPS-NH2): the negative logarithm of the EC50 (pEC50) is 9.00 to 10.00 in test [1], 9.00 to 10.00 in test [2], more than 6.00 in test [3] and less than 6.00 in test [4]. Moreover, the Emax turned out to be 98% in test [1] and 105% in test [2].

Take `CC[C@H](C)[C@H](NC(=O)[C@H](CC(C)C)NC(=O)[C@H](Cc1c[nH]c2ccccc12)NC(=O)[C@H](CCC(N)=O)NC(=O)[C@@H](NC(=O)[C@H](Cc1ccccc1)NC(=O)[C@H](C)NC(=O)[C@H](CCCCNC(=O)COCCOCCNC(=O)COCCOCCNC(=O)CC[C@H](NC(=O)CCCCCCCCCCCCCCCCCCC(=O)O)C(=O)O)NC(=O)[C@H](CCC(N)=O)NC(=O)[C@H](C)NC(=O)[C@@H](NC(=O)[C@H](CCCCN)NC(=O)[C@H](CC(=O)O)NC(=O)[C@H](CC(C)C)NC(=O)C(C)(C)NC(=O)[C@@H](NC(=O)[C@H](CO)NC(=O)[C@H](Cc1ccc(O)cc1)NC(=O)[C@H](CC(=O)O)NC(=O)[C@H](CO)NC(=O)[C@@H](NC(=O)[C@H](Cc1ccccc1)NC(=O)[C@@H](NC(=O)CNC(=O)[C@H](CCC(=O)O)NC(=O)CCNC(=O)C1(c2ccccn2)CNC(=O)C1)[C@@H](C)O)[C@@H](C)O)[C@@H](C)CC)[C@@H](C)CC)C(C)C)C(=O)N[C@@H](C)C(=O)NCC(=O)NCC(=O)N1CCC[C@H]1C(=O)N[C@@H](CO)C(=O)N[C@@H](CO)C(=O)NCC(=O)N[C@@H](C)C(=O)N1CCC[C@H]1C(=O)N1CCC[C@H]1C(=O)N1CCC[C@H]1C(=O)N[C@@H](CO)C(N)=O` (stereo partly drawn) [Compound 151] ({X79-βAla}-EGTFTSDYSI[Aib]LDKIAQK([AEEA-AEEA-γGlu-C20 diacid])AFVQWLIAGGPSSGAPPPS-NH2): the pEC50 in test [1] is 8.00 to 9.00; in test [2], 8.00 to 9.00; in test [3] it was less than 6.00; in test [4], less than 6.00. For the same compound, the Emax in test [1] was found to be 101%; in test [2], 105%.

For the origin of these results see patent US12281149B2, “Modulators of G-protein coupled receptors” (priority 2021, dated 2025).
